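Cultured in 96-well plates, cells were exposed to test compound for 48 hours across five concentrations. The concentration for 50% growth inhibition is given as GI50. TGI marks complete inhibition of growth.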

The test system of one assay is SK-MEL-2 melanoma. Put plainly: growth of human tumour cells (NCI), 48 h.
The compound `Cc1ccc(S(=O)(=O)OCC(=O)O)cc1` showed a TGI above 100 µM.
The same measure, in the same setting: with `O=c1[nH]cnc2cccc(Cl)c12` the figure was above 100 µM.
Still for that read-out and setting: with `C=C1C(=O)CC2C(=O)C(C)(O)CC/C=C(\C)C(=O)CC12` (configuration not stated) the figure was above 82.9 µM.
On to `C[C@]12CC[C@H](O)C[C@H]1CC[C@@H]1[C@@H]2CC[C@]2(C)[C@@H](C3=CC(=O)OC3)CC[C@]12O`, for which the TGI came out at 1.56 µM.

The next assay has as its system SK-MEL-28 melanoma. The assay can be described thus: growth of human tumour cells (NCI), 48 h.
Turning to `Cc1ccc(S(=O)(=O)OCC(=O)O)cc1`, the TGI is above 100 µM.
In turn, `O=c1[nH]cnc2cccc(Cl)c12` had a TGI above 100 µM.
`C=C1C(=O)CC2C(=O)C(C)(O)CC/C=C(\C)C(=O)CC12` (configuration not stated) yielded a TGI above 55.6 µM.
On the same count and under the same terms, the result for `C[C@]12CC[C@H](O)C[C@H]1CC[C@@H]1[C@@H]2CC[C@]2(C)[C@@H](C3=CC(=O)OC3)CC[C@]12O` reads 2.01 µM.

The next assay relates to SK-MEL-5 melanoma. Put plainly: growth of human tumour cells (NCI), 48 h.
As to `Cc1ccc(S(=O)(=O)OCC(=O)O)cc1`, the TGI was above 100 µM.
Consider `O=c1[nH]cnc2cccc(Cl)c12`, for which the TGI was above 100 µM.
Same read-out and setting: with `C=C1C(=O)CC2C(=O)C(C)(O)CC/C=C(\C)C(=O)CC12` (configuration not stated) the figure was 35.6 µM; with `C[C@]12CC[C@H](O)C[C@H]1CC[C@@H]1[C@@H]2CC[C@]2(C)[C@@H](C3=CC(=O)OC3)CC[C@]12O`, 0.205 µM.

Another assay relates to SK-OV-3 ovarian. Put plainly: growth of human tumour cells (NCI), 48 h.
The compound `O=c1[nH]cnc2cccc(Cl)c12` came in with a TGI above 100 µM.
Compound `C=C1C(=O)CC2C(=O)C(C)(O)CC/C=C(\C)C(=O)CC12` (configuration not stated) registered a TGI above 100 µM.
On the same count and under the same terms, with `C[C@]12CC[C@H](O)C[C@H]1CC[C@@H]1[C@@H]2CC[C@]2(C)[C@@H](C3=CC(=O)OC3)CC[C@]12O` the figure was 0.818 µM.

For a further assay, the system named is SN12C renal. Put plainly: growth of human tumour cells (NCI), 48 h.
`Cc1ccc(S(=O)(=O)OCC(=O)O)cc1` had a TGI above 100 µM.
`O=c1[nH]cnc2cccc(Cl)c12` returned a TGI above 100 µM.
On the same count and under the same terms, the result for `C=C1C(=O)CC2C(=O)C(C)(O)CC/C=C(\C)C(=O)CC12` (configuration not stated) reads 29.5 µM; that for `C[C@]12CC[C@H](O)C[C@H]1CC[C@@H]1[C@@H]2CC[C@]2(C)[C@@H](C3=CC(=O)OC3)CC[C@]12O`, 0.327 µM.

A further assay has as its system SNB-19 CNS. The assay can be described thus: growth of human tumour cells (NCI), 48 h.
`Cc1ccc(S(=O)(=O)OCC(=O)O)cc1` displayed a TGI above 100 µM.
Same read-out and setting: with `O=c1[nH]cnc2cccc(Cl)c12` the figure was above 100 µM; with `C=C1C(=O)CC2C(=O)C(C)(O)CC/C=C(\C)C(=O)CC12` (configuration not stated), above 100 µM; with `C[C@]12CC[C@H](O)C[C@H]1CC[C@@H]1[C@@H]2CC[C@]2(C)[C@@H](C3=CC(=O)OC3)CC[C@]12O`, 2.2 µM.

In the next assay the test system is SNB-75 CNS. The assay can be described thus: growth of human tumour cells (NCI), 48 h.
In turn, `O=c1[nH]cnc2cccc(Cl)c12` gave a TGI above 100 µM.
`C=C1C(=O)CC2C(=O)C(C)(O)CC/C=C(\C)C(=O)CC12` (configuration not stated) showed a TGI above 100 µM.
The same measure, in the same setting: the result for `C[C@]12CC[C@H](O)C[C@H]1CC[C@@H]1[C@@H]2CC[C@]2(C)[C@@H](C3=CC(=O)OC3)CC[C@]12O` reads 2.12 µM.

A further assay deals with SR leukemia. Put plainly: growth of human tumour cells (NCI), 48 h.
The compound `Cc1ccc(S(=O)(=O)OCC(=O)O)cc1` gave a TGI above 100 µM.
Compound `O=c1[nH]cnc2cccc(Cl)c12` showed a TGI above 100 µM.
Regarding `C=C1C(=O)CC2C(=O)C(C)(O)CC/C=C(\C)C(=O)CC12` (configuration not stated), the TGI is above 55.1 µM.

For the next assay, the system named is SW-620 colon. The assay can be described thus: growth of human tumour cells (NCI), 48 h.
For `Cc1ccc(S(=O)(=O)OCC(=O)O)cc1`, the TGI is above 100 µM.
Compound `O=c1[nH]cnc2cccc(Cl)c12` gave a TGI above 100 µM.
In the case of `C=C1C(=O)CC2C(=O)C(C)(O)CC/C=C(\C)C(=O)CC12` (configuration not stated), the TGI is above 34.2 µM.
In turn, `C[C@]12CC[C@H](O)C[C@H]1CC[C@@H]1[C@@H]2CC[C@]2(C)[C@@H](C3=CC(=O)OC3)CC[C@]12O` gave a TGI of 1.57 µM.

The next assay concerns T-47D breast. Put plainly: growth of human tumour cells (NCI), 48 h.
Regarding `Cc1ccc(S(=O)(=O)OCC(=O)O)cc1`, the TGI is above 100 µM.
On the same count and under the same terms, with `O=c1[nH]cnc2cccc(Cl)c12` the figure was above 100 µM; with `C[C@]12CC[C@H](O)C[C@H]1CC[C@@H]1[C@@H]2CC[C@]2(C)[C@@H](C3=CC(=O)OC3)CC[C@]12O`, 0.858 µM.

In a further assay the test system is TK-10 renal. Put plainly: growth of human tumour cells (NCI), 48 h.
In the case of `Cc1ccc(S(=O)(=O)OCC(=O)O)cc1`, the TGI is above 100 µM.
Same read-out and setting: with `O=c1[nH]cnc2cccc(Cl)c12` the figure was above 100 µM.
Take `C=C1C(=O)CC2C(=O)C(C)(O)CC/C=C(\C)C(=O)CC12` (configuration not stated): the TGI came out at 34.4 µM.
Same read-out and setting: with `C[C@]12CC[C@H](O)C[C@H]1CC[C@@H]1[C@@H]2CC[C@]2(C)[C@@H](C3=CC(=O)OC3)CC[C@]12O` the figure was 1.59 µM.

The next assay concerns U251 CNS. The assay can be described thus: growth of human tumour cells (NCI), 48 h.
In the case of `Cc1ccc(S(=O)(=O)OCC(=O)O)cc1`, the TGI was above 100 µM.
With `O=c1[nH]cnc2cccc(Cl)c12`, the TGI was above 100 µM.
On to `C=C1C(=O)CC2C(=O)C(C)(O)CC/C=C(\C)C(=O)CC12` (configuration not stated), for which the TGI is above 100 µM.
`C[C@]12CC[C@H](O)C[C@H]1CC[C@@H]1[C@@H]2CC[C@]2(C)[C@@H](C3=CC(=O)OC3)CC[C@]12O`: the TGI was determined as 1.52 µM.

A further assay relates to UACC-257 melanoma. Put plainly: growth of human tumour cells (NCI), 48 h.
For the compound `Cc1ccc(S(=O)(=O)OCC(=O)O)cc1`, the TGI was above 100 µM.
On the same count and under the same terms, the result for `O=c1[nH]cnc2cccc(Cl)c12` reads above 100 µM; that for `C=C1C(=O)CC2C(=O)C(C)(O)CC/C=C(\C)C(=O)CC12` (configuration not stated), 55.5 µM.
The compound `C[C@]12CC[C@H](O)C[C@H]1CC[C@@H]1[C@@H]2CC[C@]2(C)[C@@H](C3=CC(=O)OC3)CC[C@]12O` returned a TGI of 2.63 µM.

The subject of the next assay is UACC-62 melanoma. Put plainly: growth of human tumour cells (NCI), 48 h.
In the case of `Cc1ccc(S(=O)(=O)OCC(=O)O)cc1`, the TGI was above 100 µM.
As for `O=c1[nH]cnc2cccc(Cl)c12`, the TGI is above 100 µM.
On to `C=C1C(=O)CC2C(=O)C(C)(O)CC/C=C(\C)C(=O)CC12` (configuration not stated), for which the TGI was determined as 91.8 µM.
For `C[C@]12CC[C@H](O)C[C@H]1CC[C@@H]1[C@@H]2CC[C@]2(C)[C@@H](C3=CC(=O)OC3)CC[C@]12O`, the GI50 is 0.32 µM and the TGI amounted to 1.09 µM.

Another assay has as its system UO-31 renal. Put plainly: growth of human tumour cells (NCI), 48 h.
Regarding `Cc1ccc(S(=O)(=O)OCC(=O)O)cc1`, the TGI is above 100 µM.
On the same count and under the same terms, with `O=c1[nH]cnc2cccc(Cl)c12` the figure was above 100 µM; with `C=C1C(=O)CC2C(=O)C(C)(O)CC/C=C(\C)C(=O)CC12` (configuration not stated), 21.1 µM.
On the same count and under the same terms, with `C[C@]12CC[C@H](O)C[C@H]1CC[C@@H]1[C@@H]2CC[C@]2(C)[C@@H](C3=CC(=O)OC3)CC[C@]12O` the figure was 4.07 µM.

The values are drawn from PubChem BioAssay (NCI).
